Laboratory results published in PubChem BioAssay AID330 (DTP/NCI, 2004).
Where “and” joins values, the source holds several entries; their conditions need not be identical. Equal values may be shown once. Inconclusive results and toxic doses are left out. The calls were made as follows: active = survival T/C of 150% or more; inactive = T/C below 125% in these data.

System: P388 leukemia ip, CD2F1 mice, survival T/C
Assay: NCI In Vivo Anticancer Drug Screen. Data for tumor model P388 Leukemia (intraperitoneal) in CD2F1 (CDF1) mice
Settings: endpoint: median survival time, higher = longer survival
Method in brief: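 Mice carrying the transplanted tumor received test compound or vehicle. Survival was recorded in each group, and the value is the treated-group measurement divided by that of the vehicle-treated control group.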

[1] = dose: 50.0 mg/kg/injection, schedule: Q01DX009 (ip), vehicle: saline with Tween-80
[2] = dose: 100.0 mg/kg/injection, schedule: Q01DX009 (ip), vehicle: saline with Tween-80
[3] = dose: 200.0 mg/kg/injection, schedule: Q01DX009 (ip), vehicle: saline with Tween-80
[4] = dose: 60.0 mg/kg/injection, schedule: Q01DX005 (ip), vehicle: saline with Tween-80
[5] = dose: 120.0 mg/kg/injection, schedule: Q01DX005 (ip), vehicle: saline with Tween-80
[6] = dose: 240.0 mg/kg/injection, schedule: Q01DX005 (ip), vehicle: saline with Tween-80
[7] = dose: 50.0 mg/kg/injection, schedule: Q01DX005 (ip), vehicle: Klucel (hydroxypropylcellulose) (HPC)
[8] = dose: 100.0 mg/kg/injection, schedule: Q01DX005 (ip), vehicle: Klucel (hydroxypropylcellulose) (HPC)
[9] = dose: 200.0 mg/kg/injection, schedule: Q01DX005 (ip), vehicle: Klucel (hydroxypropylcellulose) (HPC)

Measured: T/C

CCCCCCCC/C=C\CCCCCCCC(=O)OCCN(CCOC(=O)CCCCCCC/C=C/CCCCCCCC)C(=O)COC(=O)CCCCCCC/C=C\CCCCCCCC
inactive: [1] 104 % of control | [2] 104 % of control | [3] 104 % of control

CN1CCN(CC(=O)c2c(-c3ccccc3)[nH]c3ccccc23)CC1
inactive: dose: 100.0 mg/kg/injection, schedule: Q04DX003 (ip), vehicle: saline 101 % of control | dose: 200.0 mg/kg/injection, schedule: Q04DX003 (ip), vehicle: saline 105 % of control | dose: 400.0 mg/kg/injection, schedule: Q04DX003 (ip), vehicle: saline 97 % of control

C(=C\c1nc2ccccc2s1)/c1ccc2c(c1)OCO2
inactive: [1] 90 % of control | [2] 90 % of control | [3] 100 % of control

CC(C)C12CN1C2(c1ccccc1)c1ccccc1 (stereo unspecified)
inactive: [4] 100 % of control | [5] 106 % of control | [6] 107 % of control

CC1(C(Cl)(Cl)Cl)C=CC(=NO)C=C1 (stereo unspecified)
inactive: [7] 110 % of control | [8] 107 % of control | [9] 110 % of control

Cc1ccc(Nc2nnc(-c3ccc4c(c3)OCO4)o2)c(C)c1
inactive: [7] 97 % of control | [8] 97 % of control | [9] 100 % of control

S=C1NCC[Se]1
inactive: dose: 6.25 mg/kg/injection, schedule: Q01DX009 (ip), vehicle: DMSO 103 % of control | dose: 12.5 mg/kg/injection, schedule: Q01DX009 (ip), vehicle: DMSO 105 % of control

CN1c2ccc(Br)c[c]2[Sn]2([c]3cc(Br)ccc31)[c]1cc(Br)ccc1N(C)c1ccc(Br)c[c]12
inactive: [4] 95 % of control | [5] 98 % of control | [6] 92 % of control

O=[N+]([O-])c1ccc(Cl)c(C(Nc2nncs2)Nc2nncs2)c1
inactive: dose: 60.0 mg/kg/injection, schedule: Q01DX005 (ip), vehicle: Klucel (hydroxypropylcellulose) (HPC) 91 % of control | dose: 120.0 mg/kg/injection, schedule: Q01DX005 (ip), vehicle: Klucel (hydroxypropylcellulose) (HPC) 104 % of control | dose: 240.0 mg/kg/injection, schedule: Q01DX005 (ip), vehicle: Klucel (hydroxypropylcellulose) (HPC) 119 % of control

Cc1cccc(-c2cc3cccnc3nc2NN=O)c1C
inactive: dose: 3.12 mg/kg/injection, schedule: Q01DX009 (ip), vehicle: water 106 % of control | dose: 6.25 mg/kg/injection, schedule: Q01DX009 (ip), vehicle: water 105 % of control and 122 % of control | dose: 12.5 mg/kg/injection, schedule: Q01DX009 (ip), vehicle: water 111 % of control | dose: 50.0 mg/kg/injection, schedule: Q01DX009 (ip), vehicle: water 106 % of control and 121 % of control | dose: 100.0 mg/kg/injection, schedule: Q01DX009 (ip), vehicle: water 93 % of control

CCN(CC)N=Nc1ccccc1-c1nc(N)c2ccccc2n1
inactive: dose: 12.5 mg/kg/injection, schedule: Q04DX003 (ip), vehicle: Klucel (hydroxypropylcellulose) (HPC) 105 % of control | dose: 25.0 mg/kg/injection, schedule: Q04DX003 (ip), vehicle: Klucel (hydroxypropylcellulose) (HPC) 102 % of control and 103 % of control and 94 % of control | dose: 50.0 mg/kg/injection, schedule: Q04DX003 (ip), vehicle: Klucel (hydroxypropylcellulose) (HPC) 98 % of control and 111 % of control and 91 % of control | dose: 100.0 mg/kg/injection, schedule: Q04DX003 (ip), vehicle: Klucel (hydroxypropylcellulose) (HPC) 102 % of control (2×) and 94 % of control | dose: 200.0 mg/kg/injection, schedule: Q04DX003 (ip), vehicle: Klucel (hydroxypropylcellulose) (HPC) 106 % of control and 119 % of control and 86 % of control

CC12CC(=O)CC1(C)CC(=O)C2 (stereo unspecified)
inactive: dose: 12.5 mg/kg/injection, schedule: Q01DX009 (ip), vehicle: saline 92 % of control | dose: 25.0 mg/kg/injection, schedule: Q01DX009 (ip), vehicle: saline 92 % of control | dose: 50.0 mg/kg/injection, schedule: Q01DX009 (ip), vehicle: saline 86 % of control and 97 % of control

CCOC(=O)c1sc(N)nc1C
inactive: dose: 9.0 mg/kg/injection, schedule: Q01DX009 (ip), vehicle: saline with Tween-80 111 % of control | dose: 18.0 mg/kg/injection, schedule: Q01DX009 (ip), vehicle: saline with Tween-80 90 % of control | dose: 25.0 mg/kg/injection, schedule: Q01DX009 (ip), vehicle: saline with Tween-80 105 % of control | dose: 36.0 mg/kg/injection, schedule: Q01DX009 (ip), vehicle: saline with Tween-80 99 % of control | [1] 106 % of control and 112 % of control and 113 % of control | [2] 108 % of control and 115 % of control and 97 % of control | [3] 102 % of control and 112 % of control
